In paper PMC9855333, “1-(Arylsulfonyl-isoindol-2-yl)piperazines as 5-HT6R Antagonists: Mechanochemical Synthesis, In Vitro Pharmacological Properties and Glioprotective Activity” (Biomolecules, 2022):

How the values were obtained:
C8-D1A astrocytes [1] = assay: Glioprotection against 6-OHDA-induced cytotoxicity, MTT; format: cell-based, mouse; conditions: compound 0.25 µM, 6-OHDA 20 µM, 24 h
Protocol: (§1) Mouse astrocytes (C8-D1A cell line, ATCC) were cultured in DMEM (Dulbecco’s Modified Eagle’s Medium) supplemented with 10% FBS (FBS; Gibco, Life Technologies, Carlsbad, CA, USA) and 1% antibiotic mixture (Gibco, Life Technologies, Carlsbad, CA, USA) at standard condition until the cells reached 80–90% confluence. Cells were harvested and seeded in 96-well plates at a density of 5000 cells/well. All experiments were conducted with a reduced amount of serum equal to 2.5%. The optimal amount of serum was determined experimentally on the basis of preliminary studies. […] Then 6-OHDA (20 µM) or rotenone (0.5 µM) were added and co-incubated for the next 24 h. The ability of tested compounds to prevent 6-OHDA-induced or rotenone-induced cytotoxicity was assessed by MTT assay following the protocol described above. The experiments were run three times in triplicates.
(§2) Considering the pivotal physiological role of astrocytes in contrasting oxidative stress and promoting tissue repair, supporting their neuroprotective function might be regarded as a tangible strategy to improve the current therapeutic needs in the treatment of neurodegenerative disorders. […] For this purpose, cells were co-incubated with the evaluated compounds (at the non-toxic concentration of 0.25 µM) and 6-OHDA or ROT (20 and 0.5 µM, respectively). After 24 h of incubation, the viability of astrocytes was determined using the MTT assay.

C8-D1A astrocytes [2] = assay: Glioprotection against rotenone-induced cytotoxicity, MTT; format: cell-based, mouse; conditions: compound 0.25 µM, rotenone 0.5 µM, 24 h
Protocol: as §1, §2

5-HT6R = 5-HT6R (Homo sapiens, UniProt P50406); assay: Basal cAMP production by constitutively active 5-HT6R in NG108-15 cells (CAMYEL BRET); format: cell-based; parameters: expressed in transfected cells; host or cells: NG108-15 (mouse neuroblastoma x rat glioma hybrid), transient co-transfection with CAMYEL, Lipofectamine 2000; conditions: NG108-15 cells transiently expressing 5-HT6R
Sequence of 5-HT6R (P50406 whole entry): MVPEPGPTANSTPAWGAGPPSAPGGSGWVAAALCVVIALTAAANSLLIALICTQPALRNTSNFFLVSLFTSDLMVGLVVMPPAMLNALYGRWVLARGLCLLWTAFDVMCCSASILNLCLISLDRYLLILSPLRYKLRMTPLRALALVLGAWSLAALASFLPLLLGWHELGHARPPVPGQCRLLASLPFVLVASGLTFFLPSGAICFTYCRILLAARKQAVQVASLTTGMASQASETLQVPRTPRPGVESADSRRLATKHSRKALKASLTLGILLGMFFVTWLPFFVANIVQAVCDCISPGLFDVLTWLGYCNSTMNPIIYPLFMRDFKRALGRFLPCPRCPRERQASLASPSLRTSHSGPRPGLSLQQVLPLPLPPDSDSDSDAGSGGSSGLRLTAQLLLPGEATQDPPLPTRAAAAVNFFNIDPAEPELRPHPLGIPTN
Protocol: Changes in cyclic AMP levels upon exposure to increasing concentrations of the tested compounds were assessed by BRET (Bioluminescence Resonance Energy Transfer) measurement using a Mithras LB 940 plate reader (Berthold Technologies), as previously described. A detailed description is reported in the Supporting Information.
2. Procedure for determination of functional activity at Gs signaling
2.1. Impact of compound 3e, 3f and 3g on cAMP production in 1321N1 cells The properties of evaluated compounds to inhibit cAMP production induced by 5-CT (1000 nM), a 5-HT6R agonist, was assessed according to previously published procedures. The level of cAMP was measured using frozen recombinant 1321N1 cells expressing the human serotonin 5-HT6R (PerkinElmer). Total cAMP was measured using the LANCE cAMP detection kit (PerkinElmer), according to the manufacturer's recommendations. For quantification of cAMP levels, 2000 cells/well (5 μL) were incubated with mixture of compound 3e, 3f and 3g (5 μL) for 30 min at room temperature in 384-well white opaque microtiter plate. After incubation, the reaction was stopped and cells were lysed by the addition of 10 μL of working solution (5 μL Eu-cAMP and 5 μL ULight-anti-cAMP) for 1 h at room temperature. Time-resolved fluorescence resonance energy transfer (TR-FRET) was detected by an Infinite M1000 Pro (Tecan) using instrument settings from LANCE cAMP detection kit manual. Compound was tested in triplicate at 8 concentrations (10-11–10-4 M). Kb values were calculated from Cheng–Prusoff equation specific for the analysis of functional inhibition curves:
Kb = IC50/(1+A/EC50) where A represents agonist concentration, IC50 the concentration of antagonist producing a 50% reduction in the response to agonist, and EC50 the agonist concentration which causes a half of the maximal response.
1.1.1. Impact of evaluated compounds on cAMP production elicited by constitutively active […]
BRET was measured using a Mithras LB 940 plate reader (Berthold Technologies). […]

O=S(=O)(c1cccc(N2CCNCC2)c1)N1Cc2cccc(Br)c2C1 [3g, 4-Bromo-2-{[3-(piperazin-1-yl)phenyl]sulfonyl}isoindoline]
effect on 6-OHDA-induced cytotoxicity (C8-D1A astrocytes [1]): decreased the cytotoxicity | effect on ROT-induced cytotoxicity (C8-D1A astrocytes [2]): decreased the cytotoxicity | 5-HT6R Functional Profile at Gs Signaling (5-HT6R): Neutral antagonist

O=S(=O)(c1cccc(N2CCNCC2)c1)N1Cc2ccccc2C1 [3e, 2-{[3-(Piperazin-1-yl)phenyl]sulfonyl}isoindoline]
5-HT6R Functional Profile at Gs Signaling (5-HT6R): Neutral antagonist

O=S(=O)(c1cccc(N2CCNCC2)c1)N1Cc2cccc(Cl)c2C1 [3f, 4-Chloro-2-{[3-(piperazin-1-yl)phenyl]sulfonyl}isoindoline]
5-HT6R Functional Profile at Gs Signaling (5-HT6R): Neutral antagonist
